Where two headings read alike, the source gives them in different places.
What was measured:
Type in all cases: cell-based
[1] = system: Leishmania donovani axenic amastigote; assay: In vitro assay for growth inhibition of Leishmania donovani axenic amastigote (Cell TiterGlo luminescence); conditions: L. donovani axenic amastigotes in vitro, read-out: L. donovani amastigotes EC50
Outline: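 Axenic L. donovani amastigotes (9600/well) grown at 37 °C, 5% CO2 in supplemented RPMI 1640, pH 5.5, with compound added from DMSO. After two days, viability read by CellTiter-Glo luminescence against DMSO and control-compound wells.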

[2] = system: L. donovani HU3 strain in mouse peritoneal macrophages; assay: Assay for inhibition of parasitemia of Leishmania donovani in mouse macrophages (SYBR Green nuclei count, high-content imaging); conditions: L. donovani in mouse peritoneal macrophages, read-out: L. donovani in Mouse Macrophages EC50
Outline: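 Peritoneal macrophages from uninfected BALB/c mice were infected for 24 h with spleen-derived L. donovani HU3 (4×10^5 parasites per 2×10^4 macrophages), then cultured with compound for 5 days at 37° C, 5% CO2. After fixation and permeabilization, parasite nuclei were stained with SYBR Green and counted by high-content imaging.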

[3] = system: Trypanosoma cruzi amastigotes cultured in 3T3 fibroblast cells; assay: Assay for growth inhibition of kinetoplastid parasite Trypanosoma cruzi (beta-galactosidase Tulahuen strain, CPRG readout); conditions: T. cruzi amastigotes in 3T3 fibroblast cells, read-out: Buckner infectious T. cruzi EC50
Outline: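 3T3 fibroblasts (1,000 cells/well) plated overnight, treated with compound in DMSO, then infected with 10,000 Lac-Z-expressing Tulahuen trypomastigotes. After 6 days, 0.6 mM CPRG with 0.6% NP-40 added for 2 h at room temperature; absorbance gives relative intracellular amastigote numbers. Benznidazole and nifurtimox serve as positive controls.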

[4] = system: Trypanosoma brucei brucei (Lister 427) strain; assay: Assay for growth inhibition against Trypanosoma brucei brucei (Cell TiterGlo ATP luminescence); conditions: T. brucei brucei (Lister 427), read-out: T. Brucei (HAT) EC50
Outline: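 T. b. brucei Lister 427 grown in HMI-9 with 10% FBS and 10% serum plus, seeded at 10,000 parasites/mL with 10-point threefold compound dilutions in duplicate, 37 °C for 2 days. Viability read as ATP luminescence 30 min after Cell TiterGlo; IC50 versus untreated controls.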

[5] = Leishmania donovani, Peritoneal macrophage

SMILES | EC50 [1] [µM] | EC50 [2] [µM] | EC50 [3] [µM] | EC50 [4] [µM] | EC50 ([1]; Leishmania donovani) [µM] | EC50 [2, 5] [µM] | EC50 ([3]; Trypanosoma cruzi, Fibroblast) [µM] | EC50 ([4]; Trypanosoma brucei) [µM]
O=C(Nc1ccc(F)c(-n2cc3cc(N4CC(F)(F)C4)cnc3n2)c1)[C@@H]1C[C@H]1F (single isomer, unassigned) [Compound 271, (1 S,2R)—N-(3-(5-(3,3-difluoroazetidin-1-yl)-2H-pyrazolo[3,4-b]pyridin-2-yl)-4-fluorophenyl)-2-fluorocyclopropane-1-carboxamide or (1R,2S)—N-(3-(5-(3,3-difluoroazetidin-1-yl)-2H-pyrazolo[3,4-b]pyridin-2-yl)-4-fluorophenyl)-2-fluorocyclopropane-1-carboxamide] | 0.12 | 0.003 | 0.144 | 0.388 | – | – | – | –
Cc1cc(C(=O)Nc2ccc(F)c(-n3cc4cc(C(C)C)cnc4n3)c2)c(C)o1 [Compound 72, N-{4-fluoro-3-[5-(propan-2-yl)-2H-pyrazolo[3,4-b]pyridin-2-yl]phenyl}-2,5-dimethylfuran-3-carboxamide] | – | – | – | – | 2.1 | 1.4 | 0.18 | 0.42
O=C(Nc1ccc(F)c(-n2cc3cc(N4CCOCC4)cnc3n2)c1)N1CCC1 [Compound 137, N-{4-fluoro-3-[5-(morpholin-4-yl)-2H-pyrazolo[3,4-b]pyridin-2-yl]phenyl}azetidine-1-carboxamide] | – | – | – | – | 0.0088 | 0.006 | 0.0051 | < 0.023
O=C(Nc1ccc(F)c(-n2cc3cc(N4CCC(C5COC5)CC4)cnc3n2)c1)N1CC(F)C1 [Compound 238, 3-fluoro-N-(4-fluoro-3-{5-[4-(oxetan-3-yl)piperidin-1-yl]-2H-pyrazolo[3,4-b]pyridin-2-yl}phenyl)azetidine-1-carboxamide] | – | – | – | – | 0.025 | 0.032 | 0.033 | 0.005
CC1CCC(C(=O)Nc2ccc(F)c(-n3cc4cc(C(C)C)cnc4n3)c2)C1 (centres unmarked) [Compound 66, N-{4-fluoro-3-[5-(propan-2-yl)-2H-pyrazolo[3,4-b]pyridin-2-yl]phenyl}-3-methylcyclopentane-1-carboxamide] | – | – | – | – | 0.74 | 0.87 | 0.15 | 0.12
O=C(Nc1ccc(F)c(-n2cc3cc(N4CC(F)C4)cnc3n2)c1)N1CCC1 [Compound 292, N-{4-fluoro-3-[5-(3-fluoroazetidin-1-yl)-2H-pyrazolo[3,4-b]pyridin-2-yl]phenyl}azetidine-1-carboxamide] | – | – | – | 0.005 | 0.005 | 0.008 | 0.003 | –
O=C(Nc1ccc(F)c(-n2cc3cc(N4CCC5(CCOCC5)C4)cnc3n2)c1)N1CC(F)C1 [Compound 244, 3-fluoro-N-[4-fluoro-3-(5-{8-oxa-2-azaspiro[4.5]decan-2-yl}-2H-pyrazolo[3,4-b]pyridin-2-yl)phenyl}azetidine-1-carboxamide] | – | – | – | – | 0.55 | 0.021 | 0.014 | 0.005
CC(C)c1cnc2nn(-c3cc(NC(=O)OCCC(F)(F)F)ccc3F)cc2c1 [Compound 174, 3,3,3-trifluoropropyl N-{4-fluoro-3-[5-(propan-2-yl)-2H-pyrazolo[3,4-b]pyridin-2-yl]phenyl}carbamate] | – | – | – | – | 2 | 2.7 | 0.72 | 1
O=C(Nc1ccc(F)c(-n2cc3cc(CC(F)(F)F)cnc3n2)c1)N1CCC1 [Compound 164, N-{4-fluoro-3-[5-(2,2,2-trifluoroethyl)-2H-pyrazolo[3,4-b]pyridin-2-yl]phenyl}azetidine-1-carboxamide] | – | – | – | – | 0.006 | 0.01 | 0.0017 | < 0.023
O=C(Nc1ccc(F)c(-n2cc3cc(N4C5COCC4C5)cnc3n2)c1)N1CC(F)C1 [Compound 263, 3-fluoro-N-[4-fluoro-3-(5-{3-oxa-6-azabicyclo[3.1.1]heptan-6-yl}-2H-pyrazolo[3,4-b]pyridin-2-yl)phenyl]azetidine-1-carboxamide] | – | – | – | – | 0.012 | 0.068 | 0.045 | 0.01
CC(C)c1cnc2nn(-c3cc(NC(=O)c4ncc(F)cc4F)ccc3F)cc2c1 [Compound 70, 3,5-difluoro-N-{4-fluoro-3-[5-(propan-2-yl)-2H-pyrazolo[3,4-b]pyridin-2-yl]phenyl}pyridine-2-carboxamide] | – | – | – | – | 0.14 | 0.1 | 0.022 | 0.038
CC(C)OC(=O)Nc1cnc2nn(-c3cc(NC(=O)N4CCC4)ccc3F)cc2c1 [Compound 138, propan-2-yl N-(2-{5-[(azetidine-1-carbonyl)amino]-2-fluorophenyl}-2H-pyrazolo[3,4-b]pyridin-5-yl)carbamate] | – | – | – | – | 0.011 | 0.0057 | 0.047 | < 0.023
Cc1nc(C(=O)Nc2ccc(F)c(-n3cc4cc(C(C)C)cnc4n3)c2)c(C)o1 [Compound 74, N-{4-fluoro-3-[5-(propan-2-yl)-2H-pyrazolo[3,4-b]pyridin-2-yl]phenyl}-2,5-dimethyl-1,3-oxazole-4-carboxamide] | – | – | – | – | 0.76 | 0.82 | 0.057 | 0.11
O=C(Nc1ccc(F)c(-n2cc3cc(C4CCC4)cnc3n2)c1)N1CC(F)C1 [Compound 20, N-(3-{5-cyclobutyl-2H-pyrazolo[3,4-b]pyridin-2-yl}-4-fluorophenyl)-3-fluoroazetidine-1-carboxamide] | – | – | – | – | 0.01 | 0.037 | 0.0042 | < 0.023
CC(C)(C)Cc1cnc2nn(-c3cc(NC(=O)N4CC(F)(F)C4)ccc3F)cc2c1 [Compound 32, N-{3-[5-(2,2-dimethylpropyl)-2H-pyrazolo[3,4-b]pyridin-2-yl]-4-fluorophenyl}-3,3-difluoroazetidine-1-carboxamide] | – | – | – | – | 0.012 | 0.013 | 0.005 | < 0.023
CC(C)c1cnc2nn(-c3cc(NC(=O)CCC4CC4)ccc3F)cc2c1 [Compound 215, 3-cyclopropyl-N-{4-fluoro-3-[5-(propan-2-yl)-2H-pyrazolo[3,4-b]pyridin-2-yl]phenyl}propanamide] | – | – | – | – | 4.7 | 2.98 | 0.738 | 0.947
O=C(Nc1ccc(F)c(-n2cc3cc(-c4ccccn4)cnc3n2)c1)c1cnccn1 [Compound 345, N-{4-fluoro-3-[5-(pyridin-2-yl)-2H-pyrazolo[3,4-b]pyridin-2-yl]phenyl}pyrazine-2-carboxamide] | – | – | – | – | 0.011 | 0.033 | 0.004 | 0.005
CN(C)c1cnc2nn(-c3cc(NC(=O)N4CC5(CC5)C4)ccc3F)cc2c1 [Compound 260, N-{3-[5-(dimethylamino)-2H-pyrazolo[3,4-b]pyridin-2-yl]-4-fluorophenyl}-5-azaspiro[2.3]hexane-5-carboxamide] | – | – | – | – | 0.221 | 0.224 | 0.049 | 0.043
O=C(Nc1ccc(F)c(-n2cc3cc(N4CC(F)(F)C4)cnc3n2)c1)N1CCCC1 [Compound 338, N-{3-[5-(3,3-difluoroazetidin-1-yl)-2H-pyrazolo[3,4-b]pyridin-2-yl]-4-fluorophenyl}pyrrolidine-1-carboxamide] | – | – | – | – | 0.005 | 0.002 | 0.003 | 0.003
O=C(Nc1ccc(F)c(-n2cc3cc(C4CCOCC4)cnc3n2)c1)N1CC[C@@H](F)C1 [Compound 150, (R)-3-fluoro-N-(4-fluoro-3-(5-(tetrahydro-2H-pyran-4-yl)-2H-pyrazolo[3,4-b]pyridin-2-yl)phenyl)pyrrolidine-1-carboxamide] | – | – | – | – | 0.014 | 0.025 | 0.021 | < 0.023
Cc1nc(C(=O)Nc2ccc(F)c(-n3cc4cc(C(C)C)cnc4n3)c2)co1 [Compound 85, N-{4-fluoro-3-[5-(propan-2-yl)-2H-pyrazolo[3,4-b]pyridin-2-yl]phenyl}-2-methyl-1,3-oxazole-4-carboxamide] | – | – | – | – | 1.2 | 0.75 | 0.15 | 0.18
O=C(Nc1ccc(F)c(-n2cc3cc(-c4ccc(F)cn4)cnc3n2)c1)N1CCC1 [Compound 330, N-{4-fluoro-3-[5-(5-fluoropyridin-2-yl)-2H-pyrazolo[3,4-b]pyridin-2-yl]phenyl}azetidine-1-carboxamide] | – | – | – | – | 0.001 | 0.002 | 0.001 | 0.001
CNc1cnc2nn(-c3cc(NC(=O)c4ccco4)ccc3F)cc2c1 [Compound 139, N-{4-fluoro-3-[5-(methylamino)-2H-pyrazolo[3,4-b]pyridin-2-yl]phenyl}furan-2-carboxamide] | – | – | – | – | 0.74 | 0.32 | 3 | < 0.023

Reference: patent US11384078B2, “5,6-fused-bicyclic compounds and compositions for the treatment of parasitic diseases” (NOVARTIS AG, priority 2017, dated 2022)
